Test results reported in US9975852B2, “Quinoline sulfonyl derivatives and uses thereof” (Health Sciences North Research Institute, priority 2013, dated 2018).

Assays:
[1] = tested on: MDA-MB231; assay: SRB antiproliferative assay, MDA-MB231; type: cell-based, human; conditions: Homo sapiens, MDA-MB-231, 48 h
Protocol: (§1) Antiproliferative effects were determined by a sulforhodamine B (SRB) based protocol. For a typical screening experiment, 5,000-10,000 cells were inoculated into 100 μl medium per well of a 96-well microtiter plate as described previously. […] Some of the sample wells were fixed with 25 μl of 50% trichloroacetic acid (TCA) as a control of the cell population for each cell line at the time of drug addition (Tz). An aliquot of the frozen stock was thawed and diluted to the desired final maximum test-concentration with complete medium. Two to ten-fold serial dilutions were made to provide a total of seven drug concentrations (and a control [C]). Following addition of drugs, the culture plate was incubated for additional 48 h. Cells were fixed in situ by slowly adding 25 μl of ice-cold 50% (w/v) TCA (final concentration, 10% TCA), and were then incubated for 60 min at 4° C. The supernatant was discarded, and the plate was washed five times with tap water, followed by air-dry. 50 μl of SRB solution at 0.4% (w/v) in 1% acetic acid was added to each well, and the plate was incubated for >30 min at room temperature. Unbound SRB was removed by five washes with tap water, followed by air-drying. […] The relative growth rate (%) was calculated for each of the compound concentrations according to the following formula: (Ti−Tz)/(C−Tz)×100 In the formula, time zero (Tz), control growth (C), and OD for different concentration of tested compounds (Ti). The GI50 for each compound was obtained from a non-linear Sigmoidal dose-response (variable slope) curve which is fitted by GraphPad Prism™ v.4.03 software. Values were calculated for each of these parameters if the level of activity was reached. However, if the effect was not reached or was exceeded, the value for that parameter was expressed as greater or less than the maximum or minimum concentration tested. Flow Cytometry

[2] = tested on: MDA-MB468; assay: SRB antiproliferative assay, MDA-MB468; type: cell-based, human; conditions: Homo sapiens, MDA-MB-468, 48 h
Protocol: as §1

[3] = tested on: MCF7; assay: SRB antiproliferative assay, MCF7; type: cell-based, human; conditions: Homo sapiens, MCF7; SRB, 48 h; read-out: GI50 MCF7
Protocol: as §1

[4] = tested on: 184B5; assay: SRB antiproliferative assay, 184B5 non-cancer breast cells; type: cell-based, human; conditions: Homo sapiens, 184B5; SRB, 48 h; read-out: GI50 184B5
Protocol: as §1

[5] = tested on: MCF7 cells; assay: Clonogenic assay using MCF7 cells; type: cell-based, human
Protocol: (§2) The clonogenic assay was carried out as described in Santi and Lee (2011).^11
Antiproliferative activity of VR-23 was evaluated on a variety of different cell lines, alone or in combination with Bortezomib, by way of SRBSRB or clonogenic assays.

[6] = tested on: MDA-MB231 human metastatic breast cancer cells; assay: Xenograft antitumor activity, ATH490 mice engrafted with MDA-MB231; type: in vivo; parameters: Tumor size D7 / Tumor size D15 / Tumor size D18 / Tumor size D22: unit not given here
Protocol: Five-week-old female CD-1 and ATH490 (strain code 490) athymic nude mice were purchased from Charles River (Quebec, Canada). The MDA-MB231 human metastatic breast cancer cells were obtained from the American Tissue Culture Collection (ATCC, Manassas, Va., USA). Cells were maintained under humidified condition at 37° C. and 5% CO2 in DMEM high glucose medium (ATCC) supplemented with 10% fetal bovine serum and antibiotics. All animal experiments, including animal handling, care, treatment and endpoint determination, were reviewed and approved by the Laurentian University Animal Care Committee (ACC) and carried out at Laurentian University Animal Care facility (Sudbury, Ontario, Canada)
To determine anti-tumor activity of VR-23 in an animal model, a xenograft model of human breast cancer cells in athymic nude mice was established. Exponentially growing MDA-MB231 cells were harvested and counted for inoculation into mice. Each mouse was subcutaneously injected at the flank with 10×10^6 cells in 0.2 ml ice cold 1×PBS. When tumor size reached 4-5 mm in diameter (n=4-5 per group), mice were randomly assigned into five (or more) groups.

[7] = Organ weight and histology (liver, spleen, kidney, lung) of ATH490 mice
Protocol: All values are presented as mean±S.E.M. Analyses were performed using GraphPad Prism software (GraphPad Software). Comparison between the groups was made by p value determination using one-way ANOVA. A p value of <0.05 was considered to be statistically significant. […] Each organ weight (%) is normalized with total body weight (BW).
The H&E stained slides were taken with a 20× objective using a Zeiss EPI-fluorescent microscope (bright field). […] At least 10 fields for each slide (one slide per mouse, and 3 mice per group) were examined.
Images were taken with a 10× objective using a Zeiss EPI-fluorescent microscope. […] Drug administration was carried out as described in Table IX and in the Materials and Methods section herein with respect to Animal Studies.
The images of the H&E stained renal tissues were taken with a Zeiss EPI-fluorescent (bright field) microscope using a 10× objective.

[8] = ATH490 mice
Protocol: Alanine Transaminase (“ALT”, SUP6001-c)/Aspartate Transaminase (“AST”, SUP6002-c) color endpoint assay kits were purchased from ID Labs Biotechnology (London, Ontario, Canada). Elevation of ALT and AST levels in serum samples is used as an indicator of liver damage/injury.
Animals were monitored for food and water consumption every day, and their body weights and tumor volumes were measured twice per week. Tumor volumes were measured with a digital caliper and were determined by using the following formula: ½ length×width^2. Blood samples were collected via cardiac puncture and processed further for ALT and AST measurements. The animals were then immediately euthanized by carbon dioxide.
Changes in body weight and the amount and ratio of alanine transaminase (ALT)/aspartate transaminase (AST) were used to measure toxic effects.
Ratio of <2 is considered normal.

[9] = tested on: U87MG brain cancer cells; assay: Clonogenic assay, U87MG brain cancer cells; type: cell-based; conditions: Temozolomide
Protocol: as §2

[10] = tested on: MCF10A; assay: SRB antiproliferative assay, MCF10A non-cancer breast cells; type: cell-based, human; conditions: Homo sapiens, MCF-10A, 48 h
Protocol: as §1

COC(=O)c1sccc1S(=O)(=O)NCCCNc1ccnc2cc(C(F)(F)F)ccc12 [Compound 31, N-(3-(7-Trifluoromethyl-quinolin-4-ylamino)propyl)thiophene-3-sulfonamide-2-carbomethoxy ester]
GI50 [1]: 7.48 ± 0.63 µM | GI50 [2]: 4.55 ± 0.25 µM | GI50 [3]: 4.33 ± 0.23 µM | GI50 [4]: 12.1 ± 0.45 µM | melting point: 137 to 139 °C

CC(=O)O[C@H]1C(=O)[C@@]2(C)[C@H]([C@H](OC(=O)c3ccccc3)[C@]3(O)C[C@H](OC(=O)[C@H](O)[C@@H](NC(=O)c4ccccc4)c4ccccc4)C(C)=C1C3(C)C)[C@]1(OC(C)=O)CO[C@@H]1C[C@@H]2O [Paclitaxel]
Survival (% of the control) ([5]; 1 nM of Paclitaxel alone): 35.8% | Survival (% of the control) ([5]; 1 nM of Paclitaxel alone, listed as paclitaxel): 35.8% | Survival (% of the control) ([5]; 2 nM of Paclitaxel alone): 9.5% | Tumor size D7 ([6]; day 7 post-treatment, dosing as in Table IX B): 47.63 ± 8.67 | Tumor size D15 ([6]; day 15 post-treatment, dosing as in Table IX B): 23.25 ± 11.63 | Tumor size D18 ([6]; day 18 post-treatment, dosing as in Table IX B): 25.20 ± 13.69 | Tumor size D22 ([6]; day 22 post-treatment, dosing as in Table IX B): 16.59 ± 2.66 | Reduction of tumor burden ([6]; paclitaxel 20 mg/kg/week): 18.4 fold | Microscopic Changes (liver) ([7]; ATH490 mice, VR-23, 30 mg/week, Paclitaxel, 20 mg/week): High rate of mitotic cells in liver | Spleen histology (H&E) ([7]; VR-23 30 mg/kg, paclitaxel 20 mg/kg): side effects including germinal center (GC) expansion | Kidney histology (H&E), nephrotoxicity ([7]; VR-23 30 mg/kg, paclitaxel 20 mg/kg, four weeks): high cellularity, endocapillary proliferative glomerulonephritis (enlarged glomeruli), and collapsed Bowman space | Cases with liver cells with densely stained nucleic acids ([7]; paclitaxel 20 mg/kg): approximately 15% | Weight of spleen ([7]; paclitaxel-treated, 29 days post-treatment): weight of spleen was higher | ALT [8]: 35.91 ± 4.26 U/L | AST [8]: 84.4 ± 29.21 U/L

Cn1nnc2c(C(N)=O)ncn2c1=O [Temozolomide]
# Colonies (Experiment #1) ([9]; 1 μM): 64 | # Colonies (Experiment #2) ([9]; 1 μM): 94 | # Colonies (Experiment #1) ([9]; 5 μM): 39 | # Colonies (Experiment #2) ([9]; 5 μM): 50 | # Colonies (Experiment #1) ([9]; 10 μM): 4 | # Colonies (Experiment #2) ([9]; 10 μM): 5 | # Colonies (Experiment #1) ([9]; 20 μM): 2 | # Colonies (Experiment #2) ([9]; 20 μM): 1 | # Colonies (Experiment #1) ([9]; 50 μM): 2 | # Colonies (Experiment #2) ([9]; 50 μM): 1

Cc1ccc(S(=O)(=O)N2CCN(c3ccnc4cc(Cl)ccc34)CC2)cc1 [VR-22 (38), 7-Chloro-4-(4-tosylpiperazin-1-yl)quinoline]
GI50 [1]: 6.16 ± 0.51 µM | GI50 [2]: 5.77 ± 0.41 µM | GI50 [3]: 5.25 ± 0.45 µM | GI50 [4]: 9.56 ± 0.53 µM | GI50 [10]: 12.6 ± 0.66 µM

O=S(=O)(c1ccc(Cl)cc1)N1CCN(c2ccnc3cc(Cl)ccc23)CC1 [VR-24 (39), 7-Chloro-4-(4-(4-chlorophenylsulfonyl)piperazin-1-yl)quinoline]
GI50 [1]: 11.8 ± 0.91 µM | GI50 [2]: 8.34 ± 0.73 µM | GI50 [3]: 4.31 ± 0.32 µM | GI50 [4]: 6.36 ± 0.34 µM | GI50 [10]: 9.7 ± 0.81 µM

O=[N+]([O-])c1cccc(S(=O)(=O)N2CCN(c3ccnc4cc(Cl)ccc34)CC2)c1 [VR-25 (40), 7-Chloro-4-(4-(3-nitrophenylsulfonyl)piperazin-1-yl)quinoline]
GI50 [1]: 20.4 ± 1.15 µM | GI50 [2]: 9.21 ± 0.65 µM | GI50 [3]: 8.62 ± 0.38 µM | GI50 [4]: 15.8 ± 0.88 µM | GI50 [10]: 31.1 ± 1.01 µM

CN(C)c1cccc2c(S(=O)(=O)NCCCNc3ccnc4cc(Cl)ccc34)cccc12 [VR-65 (41), 5-Dimethylamino-naphthalene-1-sulfonic acid [3-(7-chloro-quinolin-4-ylamino)-propyl]-amide]
GI50 [1]: 12.7 ± 1.01 µM | GI50 [2]: 4.63 ± 0.35 µM | GI50 [4]: 1.67 ± 0.08 µM | GI50 [10]: 2.56 ± 0.03 µM
